Measured values reported in ChEMBL document CHEMBL1201861, “Genomics of Drug Sensitity in Cancer screening data, Wellcome Trust Sanger Institute”.
Several values for one entry are separate records, joined by “and”; a condition that tells them apart may be missing. Equal entries are not always repeated.

Legend:
Assay in all cases: cells
COLO-829 = type: functional, cell-based, Homo sapiens
Description: SANGER: Inhibition of human COLO-829 cell growth in a cell viability assay.

CaR-1 = type: functional, cell-based, Homo sapiens;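 further: growth inhibition of human CaR-1 cancer cells, read out with a cell viability assay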
Description: SANGER: Inhibition of human CaR-1 cell growth in a cell viability assay.

Calu-3 = type: functional, cell-based, Homo sapiens;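 further: growth inhibition of human Calu-3 cells, determined with a cell viability assay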
Description: SANGER: Inhibition of human Calu-3 cell growth in a cell viability assay.

ChaGo-K-1 = type: functional, cell-based; details: Homo sapiens;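 further: growth inhibition of ChaGo-K-1 cells, read out with a cell viability assay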
Description: SANGER: Inhibition of human ChaGo-K-1 cell growth in a cell viability assay.

D-542MG = type: functional, cell-based, Homo sapiens
Description: SANGER: Inhibition of human D-542MG cell growth in a cell viability assay.

DEL = type: functional, cell-based; details: Homo sapiens;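 further: growth inhibition of the human DEL cell line, read out with a cell viability assay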
Description: SANGER: Inhibition of human DEL cell growth in a cell viability assay.

DU-4475 = type: functional, cell-based; details: Homo sapiens
Description: SANGER: Inhibition of human DU-4475 cell growth in a cell viability assay.

HCT-116 = type: functional, cell-based, Homo sapiens
Description: SANGER: Inhibition of human HCT-116 cell growth in a cell viability assay.

HEC-1 = type: functional, cell-based, Homo sapiens;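 further: growth inhibition of the cell line, read out with a cell viability assay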
Description: SANGER: Inhibition of human HEC-1 cell growth in a cell viability assay.

HL-60 = type: functional, cell-based; details: Homo sapiens;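 further: growth inhibition of human HL-60 cells, read out with a cell viability assay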
Description: SANGER: Inhibition of human HL-60 cell growth in a cell viability assay.

HPAF-II = type: functional, cell-based, Homo sapiens;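 further: growth inhibition of HPAF-II cells, read out with a cell viability assay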
Description: SANGER: Inhibition of human HPAF-II cell growth in a cell viability assay.

HT1197 = type: functional, cell-based, Homo sapiens, HT-1197
Description: SANGER: Inhibition of human HT-1197 cell growth in a cell viability assay.

HT-144 = type: functional, cell-based, Homo sapiens
Description: SANGER: Inhibition of human HT-144 cell growth in a cell viability assay.

JAR = type: functional, cell-based, Homo sapiens;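 further: growth inhibition of human JAR cells determined with a cell viability assay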
Description: SANGER: Inhibition of human JAR cell growth in a cell viability assay.

KARPAS-299 = type: functional, cell-based; details: Homo sapiens
Description: SANGER: Inhibition of human KARPAS-299 cell growth in a cell viability assay.

LNCaP-Clone-FGC = type: functional, cell-based, Homo sapiens
Description: SANGER: Inhibition of human LNCaP-Clone-FGC cell growth in a cell viability assay.

MZ2-MEL = type: functional, cell-based, Homo sapiens;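 further: growth inhibition of MZ2-MEL cells read out with a cell viability assay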
Description: SANGER: Inhibition of human MZ2-MEL cell growth in a cell viability assay.

NCI-H1563 = type: functional, cell-based, Homo sapiens;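 further: growth inhibition of human NCI-H1563 cells, read out with a cell viability assay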
Description: SANGER: Inhibition of human NCI-H1563 cell growth in a cell viability assay.

NCI-H1693 = type: functional, cell-based, Homo sapiens;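 further: growth inhibition of the human cell line, read out with a cell viability assay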
Description: SANGER: Inhibition of human NCI-H1693 cell growth in a cell viability assay.

NCI-H1770 = type: functional, cell-based; details: Homo sapiens;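 further: growth inhibition of NCI-H1770 cells determined with a viability readout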
Description: SANGER: Inhibition of human NCI-H1770 cell growth in a cell viability assay.

NCI-H209 = type: functional, cell-based; details: Homo sapiens;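 further: growth inhibition of human NCI-H209 cells, measured by a cell viability assay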
Description: SANGER: Inhibition of human NCI-H209 cell growth in a cell viability assay.

NCI-H2228 = type: functional, cell-based, Homo sapiens;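 further: growth inhibition of human NCI-H2228 cells, read out by a cell viability assay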
Description: SANGER: Inhibition of human NCI-H2228 cell growth in a cell viability assay.

NCI-H23 = type: functional, cell-based, Homo sapiens;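 further: cell viability assay measuring growth inhibition of NCI-H23 cells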
Description: SANGER: Inhibition of human NCI-H23 cell growth in a cell viability assay.

NCI-H358 = type: functional, cell-based, Homo sapiens;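 further: growth inhibition of NCI-H358 human cells, read out with a cell viability assay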
Description: SANGER: Inhibition of human NCI-H358 cell growth in a cell viability assay.

NCI-H526 = type: functional, cell-based; details: Homo sapiens;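 further: growth inhibition of the human NCI-H526 cell line, measured by a cell viability assay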
Description: SANGER: Inhibition of human NCI-H526 cell growth in a cell viability assay.

NCI-H650 = type: functional, cell-based, Homo sapiens;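 further: growth inhibition of NCI-H650 cells, read out by a viability assay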
Description: SANGER: Inhibition of human NCI-H650 cell growth in a cell viability assay.

NCI-H661 = type: functional, cell-based, Homo sapiens;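 further: cell viability assay read-out, IC50 being the concentration that inhibits growth of the cells by half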
Description: SANGER: Inhibition of human NCI-H661 cell growth in a cell viability assay.

SNU1 = type: functional, cell-based; details: Homo sapiens;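 further: growth inhibition of human NCI-SNU-1 cells, measured with a cell viability assay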
Description: SANGER: Inhibition of human NCI-SNU-1 cell growth in a cell viability assay.

OVCAR-8 = type: functional, cell-based, Homo sapiens;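 further: growth inhibition of human OVCAR-8 cells, read out by a cell viability assay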
Description: SANGER: Inhibition of human OVCAR-8 cell growth in a cell viability assay.

PFSK-1 = type: functional, cell-based, Homo sapiens;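 further: cell viability assay measuring how strongly compounds suppress growth of human PFSK-1 cells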
Description: SANGER: Inhibition of human PFSK-1 cell growth in a cell viability assay.

RMG-I = type: functional, cell-based, Homo sapiens;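 further: growth inhibition of human RMG-I cells, read out with a cell viability assay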
Description: SANGER: Inhibition of human RMG-I cell growth in a cell viability assay.

RVH-421 = type: functional, cell-based, Homo sapiens
Description: SANGER: Inhibition of human RVH-421 cell growth in a cell viability assay.

S-117 = type: functional, cell-based, Homo sapiens
Description: SANGER: Inhibition of human S-117 cell growth in a cell viability assay.

SK-HEP1 = type: functional, cell-based, Homo sapiens, SK-HEP-1;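 further: cell viability readout used to quantify reduction in proliferation of human SK-HEP-1 cells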
Description: SANGER: Inhibition of human SK-HEP-1 cell growth in a cell viability assay.

SK-LMS-1 = type: functional, cell-based, Homo sapiens;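 further: growth inhibition of human SK-LMS-1 cells, read out with a cell viability assay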
Description: SANGER: Inhibition of human SK-LMS-1 cell growth in a cell viability assay.

SK-MEL-1 = type: functional, cell-based; details: Homo sapiens;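 further: growth inhibition of human SK-MEL-1 cells, read out by a cell viability assay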
Description: SANGER: Inhibition of human SK-MEL-1 cell growth in a cell viability assay.

SW872 = type: functional, cell-based, Homo sapiens;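 further: growth inhibition of SW872 cells, read out by a viability assay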
Description: SANGER: Inhibition of human SW872 cell growth in a cell viability assay.

T47D = type: functional, cell-based, Homo sapiens;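 further: growth inhibition of human T47D cells, measured with a cell viability assay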
Description: SANGER: Inhibition of human T47D cell growth in a cell viability assay.

A-431 = type: functional, cell-based, Homo sapiens;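 further: growth inhibition of A-431 cells, determined with a cell viability read-out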
Description: SANGER: Inhibition of human A431 cell growth in a cell viability assay.

ACHN = type: functional, cell-based, Homo sapiens;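 further: cell viability read-out used to gauge how strongly growth of human ACHN cells is suppressed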
Description: SANGER: Inhibition of human ACHN cell growth in a cell viability assay.

ACN = type: functional, cell-based, Homo sapiens;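 further: growth inhibition of the human ACN cell line, read out via cell viability testing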
Description: SANGER: Inhibition of human ACN cell growth in a cell viability assay.

BB65-RCC = type: functional, cell-based, Homo sapiens;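 further: growth inhibition of the cell line, measured with a cell viability assay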
Description: SANGER: Inhibition of human BB65-RCC cell growth in a cell viability assay.

BEN = type: functional, cell-based, Homo sapiens;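 further: growth inhibition of the BEN cell line, read out with a cell viability assay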
Description: SANGER: Inhibition of human BEN cell growth in a cell viability assay.

C3A = type: functional, cell-based, Homo sapiens;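 further: growth inhibition of C3A human cells, quantified with a cell viability readout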
Description: SANGER: Inhibition of human C3A cell growth in a cell viability assay.

CAL-62 = type: functional, cell-based, Homo sapiens;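 further: growth inhibition of CAL-62 cells, read out with a cell viability assay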
Description: SANGER: Inhibition of human CAL-62 cell growth in a cell viability assay.

TE-5 = type: functional, cell-based, Homo sapiens;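 further: inhibition of cell growth, read out by a cell viability assay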
Description: SANGER: Inhibition of human TE-5 cell growth in a cell viability assay.

TE-8 = type: functional, cell-based, Homo sapiens;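 further: growth inhibition of TE-8 cells, measured with a cell viability readout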
Description: SANGER: Inhibition of human TE-8 cell growth in a cell viability assay.

UACC-257 = type: functional, cell-based, Homo sapiens
Description: SANGER: Inhibition of human UACC-257 cell growth in a cell viability assay.

UMUC3 = type: functional, cell-based, Homo sapiens;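 further: growth inhibition of human UM-UC-3 cells, read out with a cell viability assay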
Description: SANGER: Inhibition of human UM-UC-3 cell growth in a cell viability assay.

no-11 = type: functional, cell-based, Homo sapiens;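 further: growth inhibition of human NO-11 cells, read out with a cell viability assay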
Description: SANGER: Inhibition of human no-11 cell growth in a cell viability assay.

COLO-684 = type: functional, cell-based; details: Homo sapiens
Description: SANGER: Inhibition of human COLO-684 cell growth in a cell viability assay.

Measured: IC50

Cc1cc([C@@H](C)Nc2ccccc2C(=O)O)c2nc(N3CCOCC3)cc(=O)n2c1 [AZD-6482]
1.3 µM and > 5.12 µM: NCI-H650; nci-h650
1.85 µM and > 5.12 µM: D-542MG; d-542mg
0.938 µM: T47D; t47d
4.62 µM: SK-LMS-1; sk-lms-1
1.52 µM: LNCaP-Clone-FGC; Homo sapiens, LNCaP-Clone-FGC
3.44 µM and > 5.12 µM: Calu-3; calu-3
3.07 µM: SK-LMS-1; Homo sapiens, SK-LMS-1
> 5.12 µM and 3.09 µM: SW872; sw872
> 5.12 µM and 2.24 µM: ACHN; achn
0.533 µM: T47D; Homo sapiens, T47D
2.2 µM: COLO-684
2.41 µM: LNCaP-Clone-FGC; lncap-clone-fgc
> 5.12 µM: COLO-829; colo-829 | CaR-1; car-1 | ChaGo-K-1 | DEL | DU-4475 | HCT-116; hct-116 | HEC-1; Homo sapiens, HEC-1 | HEC-1; hec-1 | HL-60 | HPAF-II; hpaf-ii | HT1197; ht-1197 | HT-144; Homo sapiens, HT-144 | HT-144; ht-144 | JAR; jar | KARPAS-299 | MZ2-MEL; mz2-mel | NCI-H1563; Homo sapiens, NCI-H1563 | NCI-H1563; nci-h1563 | NCI-H1693; nci-h1693 | NCI-H1770 | NCI-H209 | NCI-H2228; nci-h2228 | NCI-H23; nci-h23 | NCI-H358; nci-h358 | NCI-H526 | NCI-H661; nci-h661 | SNU1 | OVCAR-8; ovcar-8 | PFSK-1; pfsk-1 | RMG-I; rmg-i | RVH-421; rvh-421 | S-117; s-117 | SK-HEP1; Homo sapiens, SK-HEP1 | SK-HEP1; sk-hep-1 | SK-MEL-1 | A-431; a-431 | ACN; Homo sapiens, ACN | ACN; acn | BB65-RCC; Homo sapiens, BB65-RCC | BB65-RCC; bb65-rcc | BEN; ben | C3A; c3a | CAL-62; cal-62 | TE-5; Homo sapiens, TE-5 | TE-5; te-5 | TE-8; te-8 | UACC-257; Homo sapiens, UACC-257 | UACC-257; uacc-257 | UMUC3; umuc3 | no-11

O=C(NOCC1CC1)c1ccc(F)c(F)c1Nc1ccc(I)cc1Cl [CI-1040]
5.18 µM: UMUC3; Homo sapiens, UMUC3
0.754 µM: SNU1
3.75 µM: HPAF-II; Homo sapiens, HPAF-II
2.11 µM: MZ2-MEL; Homo sapiens, MZ2-MEL
0.965 µM: UACC-257; Homo sapiens, UACC-257
0.972 µM: RVH-421; Homo sapiens, RVH-421
1.23 µM: SK-MEL-1
4.45 µM: NCI-H358; Homo sapiens, NCI-H358
5.93 µM: SK-HEP1; Homo sapiens, SK-HEP1
8.42 µM: TE-5; Homo sapiens, TE-5
0.076 µM: DU-4475
2.41 µM: BB65-RCC; Homo sapiens, BB65-RCC
> 10 µM: CaR-1; Homo sapiens, CaR-1 | Calu-3; Homo sapiens, Calu-3 | ChaGo-K-1 | D-542MG; Homo sapiens, D-542MG | DEL | HEC-1; Homo sapiens, HEC-1 | HT1197; Homo sapiens, HT1197 | JAR; Homo sapiens, JAR | KARPAS-299 | LNCaP-Clone-FGC; Homo sapiens, LNCaP-Clone-FGC | NCI-H1563; Homo sapiens, NCI-H1563 | NCI-H1770 | NCI-H209 | NCI-H2228; Homo sapiens, NCI-H2228 | NCI-H23; Homo sapiens, NCI-H23 | NCI-H526 | NCI-H650; Homo sapiens, NCI-H650 | NCI-H661; Homo sapiens, NCI-H661 | OVCAR-8; Homo sapiens, OVCAR-8 | PFSK-1; Homo sapiens, PFSK-1 | RMG-I; Homo sapiens, RMG-I | S-117; Homo sapiens, S-117 | SK-LMS-1; Homo sapiens, SK-LMS-1 | SW872; Homo sapiens, SW872 | T47D; Homo sapiens, T47D | BEN; Homo sapiens, BEN | C3A; Homo sapiens, C3A | no-11; Homo sapiens | COLO-684
1.62 µM: COLO-829; Homo sapiens, COLO-829
0.647 µM: HT-144; Homo sapiens, HT-144
4.07 µM: CAL-62; Homo sapiens, CAL-62
8.92 µM: NCI-H1693; Homo sapiens, NCI-H1693
7.03 µM: ACHN; Homo sapiens, ACHN
0.267 µM: ACN; Homo sapiens, ACN
0.411 µM: HL-60
6.24 µM: A-431; Homo sapiens, A-431
5.69 µM: TE-8; Homo sapiens, TE-8
6.81 µM: HCT-116; Homo sapiens, HCT-116
